Experimental data as given in US5919793A, “Heterocyclic derivatives” (Zeneca Limited, priority 1993, dated 1999).

Assays:
[1] = system: de novo hepatic cholesterol synthesis from 14C-acetate; test: Acute rat cholesterol synthesis assay; assay type: in vivo; settings: inhibition of cholesterol synthesis
Procedure: (b) Acute rat cholesterol synthesis assay.
This is an acute in vivo test in the rat to measure de novo hepatic cholesterol synthesis from exogenously administered ^14 C-acetate.
Female rats (35-55 g) are housed in reverse lighting conditions (red light from 0200 h-1400 h) for a period of about 2 weeks prior to test. Animals are allowed free access to chow and drinking water throughout this period. At test, animals should weigh 125-150 g.
Test compounds may be administered by oral gavage, dissolved or suspended in 0.5% polysorbate, or by ip or iv dosing. Control animals receive vehicle alone. After 1 hour the rats are injected ip with 25 μCi [2-^14 C]-acetate (NEN DUPONT. specific activity, 45-60 mCi/mmol NEC-085H, or AHERSHAM specific activity, 50-60 mCi/mmol CFA 14) in a volume of 0.25 ml saline (100 μCi/ml). After a further hour, rats are terminally anaesthetised with halothane and a blood sample obtained from the abdominal vena cava.
1 ml of plasma is lyophilised and then saponified in 2 ml ethanolic KOH (1 part 33% KOH, 9 parts ethanol) at 75° C. for 2 hours. After addition of an equal quantity of water, non-saponifiable lipids are extracted with two 5 ml volumes of hexane. The hexane extracts are evaporated to dryness and the residues dissolved in ethanol to determine cholesterol specific radioactivity. ED50 values can be determined in the standard way.

[2] = system: squalene synthase (rat liver microsomal protein); test: Inhibition of Squalene synthase (formation of squalene from tritiated farnesyl pyrophosphate); assay type: biochemical; settings: at 2.5 μM
Procedure: (a) Inhibition of Squalene synthase
In this test, the ability of a compound to prevent the formation of squalene from a radioactive substrate (tritiated farnesyl pyrophosphate) is assessed.
The test compound is incubated at a concentration of 25 micromolar in 200 μl of a buffered solution containing potassium phosphate (50 mM), MgCl2 (4.95 mM), KF (9.9 mM), NADPH (0.9 mM) and rat liver microsomal protein (20 μg). Rat liver microsomes are prepared by the method described in published European Patent Application No. 324,421 and stored in liquid nitrogen prior to assay. Assay vials are kept at 37° C. throughout the incubation.
The reaction is started with the addition of the substrate (1-[^3 H]-farnesyl pyrophosphate), final concentration 20 μM, and stopped after 15 minutes reaction time with the addition of 50 μl of 4% KOH. The reaction products are separated from unreacted substrate after application to a C-18 octadecyl 1 ccBond column (Analytichem Int product No. 617101). An aqueous fraction is eluted with 250 μl of 0.1M KOH. Squalene is then eluted with 1.0 ml 10% ethylacetate in hexane and radioactivity determined. The difference in radioactivity in the presence and absence of the test compound is used to determine the level of inhibition. […] The IC50 can then be determined from a plot of percentage inhibition against concentration of test compound.

COCCOc1cc(C)c(C#CC2(O)CN3CCC2CC3)c(C)c1 (centres unmarked) [Example 16] was tested. Which ED50 [1] did it give?
The ED50 was roughly 5.1 mg/kg.

What about the “inhibition of squalene synthase” value [2] of the same compound?
Its value is “about 80%”.
